Reference: patent publication EP0750618B1, “OXAZOLIDINONE DERIVATIVES AND PHARMACEUTICAL COMPOSITIONS CONTAINING THEM” (priority 1994, dated 1995)
Values after ≈ are worked out from the molar mass of the structure shown. Like-named read-outs stand apart in the source and are kept apart here.

What was measured:
Test in all cases: MIC test, standard agar dilution method
[1] = test system: Staphylococcus epidermidis (UC 12084); type: cell-based; details: UC12084, incubated overnight at 35°C, read-out: Minimum Inhibitory Concentrations (MIC) S. enidermidis
[2] = test system: Streptococcus pyogenes (UC 152); details: UC152, read-out: Minimum Inhibitory Concentrations (MIC) S. pyogenes
Staphylococcus aureus = test system: Staphylococcus aureus
[3] = UC9213, read-out: Minimum Inhibitory Concentrations (MIC) S. aureus

SMILES | MIC [1] [µg/mL] | MIC [2] [µg/mL] | MIC (Staphylococcus aureus; [3]) [µg/mL] | MIC (Staphylococcus aureus; UC9218, read-out: Minimum Inhibitory Concentrations (MIC) S. aureus) [µg/mL]
CC(=O)NC[C@H]1CN(c2ccc(N3CCC(=NNC(N)=O)CC3)c(F)c2)C(=O)O1 [compound 39, (S)-N-{3-[3-fluoro-4-(4-semicarbazono-piperidin-1-yl)-phenyl]-2-oxo-oxazolidin-5-ylmethyl}-acetamide] | 0.5 (≈ 1.23 µM) | 2 (≈ 4.92 µM) | 2 (≈ 4.92 µM) | –
CC(=O)NC[C@H]1CN(c2ccc(N3CCC(=NOCCO)CC3)c(F)c2)C(=O)O1 [compound 48, (S)-N-(3-{3-fluoro-4-[4-(2-hydroxy-ethoxyimino)-piperidin-1-yl]-phenyl}-2-oxo-oxazolidin-5-ylmethyl)-acetamide] | 1 (≈ 2.45 µM) | 2 (≈ 4.9 µM) | 8 (≈ 19.6 µM) | –
CC(=O)NC[C@H]1CN(c2ccc(N3CCC(=NNCCO)CC3)c(F)c2)C(=O)O1 [compound 41, (S)-N-[3-(3-fluoro-4-{4-[(2-hydroxy-ethyl)-hydrazono]-piperidin-1-yl}-phenyl)-2-oxo-oxazolidin-5-ylmethyl]-acetamide] | 0.5 (≈ 1.23 µM) | 1 (≈ 2.45 µM) | 4 (≈ 9.82 µM) | –
CC(=O)NC[C@H]1CN(c2ccc(N3CCC(=O)C(CO)C3)c(F)c2)C(=O)O1 (stereo partly drawn) [Compound No. 37, (S)-N-{3-[3-fluoro-4-(3-hydroxymethyl-4-oxo-piperidin-1-yl)-phenyl]-2-oxo-oxazolidin-5-ylmethyl}-acetamide] | 2 (≈ 5.27 µM) | 2 (≈ 5.27 µM) | 8 (≈ 21.1 µM) | –
CN[C@H](CC(C)C)C(=O)N[C@H]1C(=O)N[C@@H](CC(N)=O)C(=O)N[C@H]2C(=O)N[C@H]3C(=O)N[C@H](C(=O)N[C@H](C(=O)O)c4cc(O)cc(O)c4-c4cc3ccc4O)[C@H](O)c3ccc(c(Cl)c3)Oc3cc2cc(c3O[C@@H]2O[C@H](CO)[C@@H](O)[C@H](O)[C@H]2O[C@H]2C[C@](C)(N)[C@H](O)[C@H](C)O2)Oc2ccc(cc2Cl)[C@H]1O [Vancomycin, reference compound] | 2 (≈ 1.38 µM) | 0.5 (≈ 0.345 µM) | 1 (≈ 0.69 µM) | –
COCOCCON=C1CCN(c2ccc(N3C[C@H](CNC(C)=O)OC3=O)cc2F)CC1 [compound 53, (S)-N-(3-{3-fluoro-4-[4-(2-methoxymethoxy-ethoxyimino)-piperidin-1-yl]-phenyl}-2-oxo-oxazolidin-5-ylmethyl)-acetamide] | 2 (≈ 4.42 µM) | 4 (≈ 8.84 µM) | 16 (≈ 35.4 µM) | –
CC(=O)NC[C@H]1CN(c2ccc(N3CCC(=NNC(=N)N)CC3)c(F)c2)C(=O)O1 [compound 42, (S)-N-{3-[3-fluoro-4-(4-amidinohydrazono-piperidin-1-yl)-phenyl]-2-oxo-oxazolidin-5-ylmethyl}-acetamide] | 2 (≈ 4.93 µM) | 0.5 (≈ 1.23 µM) | 8 (≈ 19.7 µM) | –
CC(=O)CC1CCN(c2ccc(N3C[C@H](CNC(C)=O)OC3=O)cc2F)CC1 [compound 33, (S)-N-(3-{3-fluoro-4-[4-(2-oxo-propyl)-piperidin-1-yl]-phenyl}-2-oxo-oxazolidin-5-ylmethyl)-acetamide] | 2 (≈ 5.11 µM) | 2 (≈ 5.11 µM) | 8 (≈ 20.4 µM) | –
COCCNC1CCN(c2ccc(N3C[C@H](CNC(C)=O)OC3=O)cc2F)CC1 [compound 64, (S)-N-(3-{3-fluoro-4-[4-(2-methoxy-ethylamino)-piperidin-1-yl]-phenyl}-2-oxo-oxazolidin-5-ylmethyl)-acetamide] | 2 (≈ 4.9 µM) | 1 (≈ 2.45 µM) | 32 (≈ 78.3 µM) | –
COC(=O)CON=C1CCN(c2ccc(N3C[C@H](CNC(C)=O)OC3=O)cc2F)CC1 [compound 47, (S)-(1-{4-[5-(acetylamino-methyl)-2-oxo-oxazolidin-3-yl]-2-fluoro-phenyl}-piperidin-4-ylideneaminooxy)-acetic acid methyl ester] | 1 (≈ 2.29 µM) | 2 (≈ 4.58 µM) | 8 (≈ 18.3 µM) | –
CC(=O)NC[C@H]1CN(c2ccc(N3CCC(CO)CC3)c(F)c2)C(=O)O1 [Compound No. 4, (S)-N-{3-[3-fluoro-4-(4-hydroxymethyl-piperidin-1-yl)-phenyl]-2-oxo-oxazolidin-5-ylmethyl}-acetamide] | 2 (≈ 5.47 µM) | 2 (≈ 5.47 µM) | 8 (≈ 21.9 µM) | –
CC(=O)NC[C@H]1CN(c2ccc(N3CCC(=NN)CC3)c(F)c2)C(=O)O1 [compound 46, (S)-N-{3-[3-fluoro-4-(4-hydrazono-piperidin-1-yl)-phenyl]-2-oxo-oxazolidin-5-ylmethyl}-acetamide] | 0.5 (≈ 1.38 µM) | 2 (≈ 5.5 µM) | 2 (≈ 5.5 µM) | –
CC(=O)NC[C@H]1CN(c2ccc(N3CCC(C4(C)OCCO4)CC3)c(F)c2)C(=O)O1 [Compound No. 35, (S)-N-(3-{3-fluoro-4-[4-(2-methyl-[1,3]dioxolan-2-yl)-piperidin-1-yl]-phenyl}-2-oxo-oxazolidin-5-ylmethyl)-acetamide] | 2 (≈ 4.75 µM) | 2 (≈ 4.75 µM) | 8 (≈ 19 µM) | –
CC(=O)NC[C@H]1CN(c2ccc(N3CCCCC3)c(F)c2)C(=O)O1 [Compound No. 2, (S)-N-[3-(3-fluoro-4-piperidin-1-yl-phenyl)-2-oxo-oxazolidin-5-ylmethyl]-acetamide] | 1 (≈ 2.98 µM) | 4 (≈ 11.9 µM) | – | 8 (≈ 23.9 µM)
COC(=O)[C@H]1CN(c2ccc(N3CC(CNC(C)=O)OC3=O)cc2F)CCC1=O (stereo partly drawn) [Compound No. 34, (S)-1-{4-[5-(acetylamino-methyl)-2-oxo-oxazolidin-3-yl]-2-fluoro-phenyl}-4-oxo-piperidin-3-carboxylic acid methyl ester] | 4 (≈ 9.82 µM) | 4 (≈ 9.82 µM) | 16 (≈ 39.3 µM) | –
CC(=O)NC[C@H]1CN(c2ccc(N3CCC4(CC3)OCCO4)c(F)c2)C(=O)O1 [compound 28, (S)-N-{3-[4-(1,4-dioxa-8-aza-sprio[4.5]dec-8-yl)-3-fluoro-phenyl]-2-oxo-oxazolidin-5-ylmethyl}-acetamide] | 2 (≈ 5.08 µM) | 4 (≈ 10.2 µM) | 8 (≈ 20.3 µM) | –
CC(=O)NC[C@H]1CN(c2ccc(N3CCC(NC(C)=O)CC3)c(F)c2)C(=O)O1 [compound 9, (S)-N-{3-[4-(4-acetylamino-piperidin-1-yl)-3-fluoro-phenyl]-2-oxo-oxazolidin-5-ylmethyl}-acetamide] | 2 (≈ 5.1 µM) | 4 (≈ 10.2 µM) | 16 (≈ 40.8 µM) | –
CC(=O)NC[C@H]1CN(c2ccc(N3CCC(Nc4nccs4)CC3)c(F)c2)C(=O)O1 [Compound No. 63, (S)-N-(3-{3-fluoro-4-[4-(thiazol-2-ylamino)-piperidin-1-yl]-phenyl}-2-oxo-oxazolidin-5-ylmethyl)-acetamide] | 2 (≈ 4.61 µM) | 2 (≈ 4.61 µM) | 16 (≈ 36.9 µM) | –
CC(=O)NC[C@H]1CN(c2ccc(N3CCC(=NOC(=O)COC(C)=O)CC3)c(F)c2)C(=O)O1 [compound 43, (S)-N-{3-[3-fluoro-4-(4-acetoxyacetoxyimino-piperidin-1-yl)-phenyl]-2-oxo-oxazolidin-5-ylmethyl}-acetamide] | 0.5 (≈ 1.08 µM) | 1 (≈ 2.15 µM) | 4 (≈ 8.61 µM) | –
CC(=O)NC[C@H]1CN(c2ccc(N3CCC(NC(=O)OCOC(C)=O)CC3)c(F)c2)C(=O)O1 [compound 65, (S)-N-(3-{4-[4-(acetoxy-methoxy-carbonylamino)-piperidin-1-yl]-3-fluorophenyl}-2-oxo-oxazolidin-5-ylmethyl)-acetamide] | 1 (≈ 2.14 µM) | 0.5 (≈ 1.07 µM) | 8 (≈ 17.2 µM) | –
C=CCON=C1CCN(c2ccc(N3C[C@H](CNC(C)=O)OC3=O)cc2F)CC1 [Compound No. 58, (S)-N-{3-[4-(4-allyloxyimino-piperidin-1-yl)-3-fluoro-phenyl]-2-oxo-oxazolidin-5-ylmethyl}-acetamide] | 1 (≈ 2.47 µM) | 2 (≈ 4.95 µM) | 8 (≈ 19.8 µM) | –
